Source: the supplement of paper PMC10307832

Assays:
Assay in all cases: relative viability (nuclei count vs DMSO), 5 days (fraction); higher = more cells survive
[1] = compound: C/C(=N\NC(=S)N1CCC1)/C2=CC=CC=N2 + CC(=O)c1c(C)c2cnc(Nc3ccc(N4CCNCC4)cn3)nc2n(C2CCCC2)c1=O [Palbociclib] (partner 0.5 µM)
Outline: (§1)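 Medians of duplicate plates are given as relative viability. That measure is the nuclei count in treated wells divided by the count in vehicle wells. Counts were taken on 4× images of lung cancer cell lines in 1536-well plates, 5 days after pin-tool dosing the day after seeding with one drug alone or a fixed anchor-drug dose plus five library-drug doses (not always all listed) in √10 steps.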

[2] = compound: C/C(=N\NC(=S)N1CCC1)/C2=CC=CC=N2 + N=C(N)NC(=N)NCCc1ccccc1 [Phenformin] (partner 250 µM)
Outline: as §1

[3] = compound: C/C(=N\NC(=S)N1CCC1)/C2=CC=CC=N2 + CS(=O)(=O)N1CCN(Cc2cc3nc(-c4cccc5[nH]ncc45)nc(N4CCOCC4)c3s2)CC1 [Pictilisib] (partner 1 µM)
Outline: as §1

[4] = compound: C/C(=N\NC(=S)N1CCC1)/C2=CC=CC=N2 + Nc1ncn([C@H]2C[C@H](O)[C@@H](CO)O2)c(=O)n1 [Decitabine] (partner 2 µM)
Outline: as §1

Cell Line | relative viability ([1]; first compound 0.05 µM) | relative viability ([1]; first compound 0.1581 µM) | relative viability ([1]; first compound 0.5 µM) | relative viability ([1]; first compound 1.581 µM) | relative viability ([1]; first compound 5 µM) | relative viability ([2]; first compound 0.05 µM) | relative viability ([2]; first compound 0.1581 µM) | relative viability ([2]; first compound 0.5 µM) | relative viability ([2]; first compound 1.581 µM) | relative viability ([2]; first compound 5 µM) | relative viability ([3]; first compound 0.05 µM) | relative viability ([3]; first compound 0.1581 µM) | relative viability ([3]; first compound 0.5 µM) | relative viability ([3]; first compound 1.581 µM) | relative viability ([3]; first compound 5 µM) | relative viability ([4]; first compound 0.05 µM) | relative viability ([4]; first compound 0.1581 µM) | relative viability ([4]; first compound 0.5 µM) | relative viability ([4]; first compound 1.581 µM) | relative viability ([4]; first compound 5 µM)
LK-2 | 0.0858 | 0.0843 | 0.0965 | 0.0618 | 0.112 | 0.119 | 0.185 | 0.13 | 0.085 | 0.151 | 0.146 | 0.263 | 0.268 | 0.198 | 0.238 | 0.0805 | 0.111 | 0.0805 | 0.0894 | 0.0937
NCI-H1993 | 0.345 | 0.36 | 0.349 | 0.405 | 0.377 | 0.524 | 0.495 | 0.627 | 0.581 | 0.526 | 0.743 | 0.673 | 0.765 | 0.676 | 0.692 | 0.42 | 0.497 | 0.342 | 0.431 | 0.381
NCI-H838 | 0.161 | 0.165 | 0.158 | 0.129 | 0.13 | 0.163 | 0.171 | 0.175 | 0.123 | 0.139 | 0.172 | 0.207 | 0.167 | 0.102 | 0.157 | 0.258 | 0.261 | 0.265 | 0.192 | 0.2
NCI-H1437 | 0.183 | 0.175 | 0.163 | 0.129 | 0.111 | 0.132 | 0.182 | 0.182 | 0.162 | 0.159 | 0.0885 | 0.101 | 0.0858 | 0.0683 | 0.0721 | 0.263 | 0.248 | 0.246 | 0.199 | 0.172
NCI-H2170 | 0.37 | 0.378 | 0.17 | 0.131 | 0.121 | 0.263 | 0.26 | 0.22 | 0.222 | 0.153 | 0.158 | 0.188 | 0.178 | 0.192 | 0.167 | 0.374 | 0.434 | 0.22 | 0.199 | 0.14
LCLC-103H | 0.335 | 0.464 | 0.309 | 0.289 | 0.287 | 0.17 | 0.172 | 0.21 | 0.129 | 0.187 | 0.269 | 0.254 | 0.266 | 0.234 | 0.265 | 0.346 | 0.684 | 0.329 | 0.342 | 0.291
NCI-H441 | 0.13 | 0.112 | 0.124 | 0.0967 | 0.105 | 0.204 | 0.16 | 0.197 | 0.156 | 0.187 | 0.127 | 0.101 | 0.115 | 0.108 | 0.128 | 0.185 | 0.163 | 0.17 | 0.134 | 0.126
SK-LU-1 | 0.233 | 0.233 | 0.246 | 0.196 | 0.233 | 0.124 | 0.152 | 0.174 | 0.104 | 0.123 | 0.166 | 0.188 | 0.212 | 0.158 | 0.139 | 0.274 | 0.327 | 0.25 | 0.246 | 0.294
BEN | 0.346 | 0.332 | 0.336 | 0.283 | 0.313 | 0.155 | 0.16 | 0.178 | 0.232 | 0.201 | 0.164 | 0.162 | 0.156 | 0.186 | 0.176 | 0.253 | 0.338 | 0.318 | 0.266 | 0.359
LC-2-ad | 0.224 | 0.196 | 0.192 | 0.172 | 0.202 | 0.29 | 0.277 | 0.259 | 0.19 | 0.226 | 0.141 | 0.106 | 0.103 | 0.103 | 0.117 | 0.267 | 0.244 | 0.204 | 0.227 | 0.22
COR-L23 | 0.0993 | 0.12 | 0.0934 | 0.0924 | 0.0839 | 0.104 | 0.102 | 0.104 | 0.0877 | 0.0862 | 0.134 | 0.0963 | 0.103 | 0.0639 | 0.0663 | 0.156 | 0.149 | 0.161 | 0.106 | 0.0995
NCI-H1650 | 0.17 | 0.119 | 0.138 | 0.138 | 0.163 | 0.122 | 0.16 | 0.194 | 0.14 | 0.18 | 0.17 | 0.214 | 0.186 | 0.165 | 0.193 | 0.189 | 0.141 | 0.141 | 0.206 | 0.186
RERF-LC-KJ | 0.211 | 0.19 | 0.194 | 0.198 | 0.212 | 0.316 | 0.279 | 0.319 | 0.273 | 0.287 | 0.19 | 0.17 | 0.173 | 0.18 | 0.191 | 0.234 | 0.235 | 0.215 | 0.283 | 0.247
NCI-H1915 | 0.166 | 0.159 | 0.138 | 0.12 | 0.124 | 0.253 | 0.231 | 0.221 | 0.178 | 0.179 | 0.208 | 0.189 | 0.17 | 0.144 | 0.153 | 0.115 | 0.123 | 0.144 | 0.124 | 0.148
NCI-H2009 | 0.0949 | 0.102 | 0.108 | 0.112 | 0.0775 | 0.125 | 0.185 | 0.221 | 0.154 | 0.184 | 0.144 | 0.156 | 0.178 | 0.172 | 0.0975 | 0.114 | 0.155 | 0.144 | 0.136 | 0.117
NCI-H2126 | 0.249 | 0.34 | 0.212 | 0.207 | 0.209 | 0.396 | 0.407 | 0.364 | 0.316 | 0.381 | 0.247 | 0.267 | 0.254 | 0.227 | 0.216 | 0.292 | 0.599 | 0.222 | 0.226 | 0.247
